Assay [1] relates to MDA MB231 breast cancer cell suspension. Description: Ultrasound-induced DOX transfer from bubble walls into cells (fluorescence). Particulars: 0.75 mg/ml Dox/0.5% PEG-PLLA/2% PFP formulation; 3-MHz ultrasound, 2 W/cm^2, 20% duty cycle, 30-s exposure. Format: cell-based. An excerpt:
(B) Fluorescence image of the MDA MB231 cell (thick arrow) and bubble (thin arrow) aggregates formed in the capillary during a 150-s sonication (corresponding to a 30-s ultrasound exposure time) by 3-MHz ultrasound at a 2 W/cm^2 nominal power density with a 20% duty cycle, with the focus on the bubbles. Ultrasound was applied directly to the slide through the Aquasonic coupling gel. (C) Fluorescence image of another cell aggregate of the same sample, with focus on the cells.
The elucidation of this problem would allow designing optimal ultrasound protocols. Previous data was re-evaluated. These experiments were performed by sonicating a nanodroplet/cell mixture placed in a plastic capillary (internal diameter 340 μm) of a snake mixer slide.

Assay [2] deals with red fluorescent protein labeled MiaPaCa-2 cells. Description: Orthotopic pancreatic cancer model, chemotherapy with or without ultrasound. In kind it is in vivo, Mice. To be noted: no ultrasound treatment. As to the method:
Orthotopic pancreatic cancer was inoculated surgically in the pancreatic tail. Mice received a single sub-capsular injection of 1×10^6 red fluorescent protein labeled MiaPaCa-2 cells suspended in 0.125 mL serum free media (DMEM). All procedures were done utilizing a 12× Universal S3B microscope.
Following the primary surgery, high resolution (3456 pixels×2304 pixels) whole body digital images (EOS Digital Rebel, Canon USA, Lake Success, N.Y.) of each mouse were obtained once a week to monitor primary tumor growth and presence of metastases. The red fluorescent protein was visualized with an Illumatool Bright Light System that consisted of a 563 nm excitation filter and a 587 nm emission filter (Model LT-9900, LightTools Research, Encinitas, Calif.). Animals were imaged under nose-cone induced isoflurane general anesthesia. Primary tumor area was quantified using public domain software ImageJ (National Institutes of Health http://rsb.info.nih.gov/ij/).
Animals were randomly assigned to six groups, six animals each: (1) negative control (injection of PBS); (2) GEM at 140 mg/kg (positive control 1); (3) GEN at 20 mg/kg as PTX (positive control 2); (4) GEM+GEN combination treatment; (5) GEN+ultrasound; (6) GEM+nbGEN+ultrasound. […] Nominal ultrasound intensity was 3.4 W/cm^2, which corresponded to a measured MI=0.59. […]

As to `COc1cccc2c1C(=O)c1c(O)c3c(c(O)c1C2=O)C[C@@](O)(C(=O)CO)C[C@@H]3O[C@H]1C[C@H](N)[C@H](O)[C@H](C)O1` [DOX, doxorubicin], the “Cell fluorescence after sonication (DOX transfer into cells)” value in assay [1] is “acquired strong fluorescence”.

Turning to `Nc1ccn([C@@H]2O[C@H](CO)[C@@H](O)C2(F)F)c(=O)n1` [GEM, gemcitabine], the “Ascitis in ultrasound images” value in assay [2] was “clearly visible”.

The values above are taken from patent publication US20100178305A1, “ULTRASONIC NANOTHERAPY OF SOLID TUMORS WITH BLOCK COPOLYMERS STABILIZED PERFLUOROCARBON NANODROPLETS” (UNIVERSITY OF UTAH RESEARCH FOUNDATION, priority 2008, published 2010).
